Source: patent publication US11603570B2, “Methods for the detection and treatment of leukemias that are responsive to DOT1L inhibition” (MEMORIAL SLOAN KETTERING CANCER CENTER, priority 2013, dated 2023)
“Also recorded” adds a separate entry of the source.

How the values were obtained:
[1] = system: Molm-13; assay: Cell proliferation, Molm-13; format: cell-based; conditions: Homo sapiens; MLL-translocated line Molm-13; FIG. 2
[2] = system: EOL-1; assay: Proliferation of MLL-PTD cell line EOL-1; format: cell-based, human; conditions: 10 μM, 10-day period
[3] = system: Npm1^cA/+Rosa^SB/+ AML cells; assay: Leukemia initiating potential in vivo, mice injected with pre-treated Npm1^cA/+Rosa^SB/+ cells; set-up: species or system mouse
Excerpt: FIGS. 13A-13C show the effects of DOT1L inhibition on leukemia initiating potential in vivo. […] FIG. 13B indicates differentiation in EPZ00477 treated cells (and not in cells exposed to only DMSO). […] Numbers of white blood cells and platelets are expressed as number of cells per microliter (μL) of blood. Hemoglobin levels are expressed in grams per deciliter (g/dl).
Furthermore, peripheral blood smears stained with Wright-Giemsa stain indicate differentiation in EPZ00477 treated cells (and not in cells exposed to only DMSO) (FIG. 13B).

[4] = system: Jurkat; assay: Cell proliferation, Jurkat; format: cell-based; conditions: Homo sapiens; non-MLL-translocated line Jurkat; FIG. 2
[5] = system: OCI-AML3; assay: Differentiation marker CD11b in OCI-AML3 cells; conditions: 10 μM, days 4, 7, and 10; FIG. 11B
[6] = system: THP-1; assay: Cell proliferation, THP-1; format: cell-based; conditions: Homo sapiens; MLL-translocated line THP-1; FIG. 2
[7] = system: OCI-AML2; assay: Proliferation of OCI-AML2 (DNTM3A mutant) cells; format: cell-based, human
Experimental: (§1) Apoptosis was assessed by staining cells with Annexin V 10 days after treatment. The extent of apoptosis was compared to that found in MLL-AF9 transformed cells treated in a similar fashion.
Cell numbers were assessed at multiple time points after treatment was initiated. […] Evidence of differentiation was assessed after DOT1L inhibition via characterization of cell surface marker expression—such as CD11b and CD15 expression, both of which are induced upon differentiation of myelomonocytic leukemia cells.
MTT assays were performed on day 11.

[8] = system: Kasumi-1; assay: Cell proliferation, Kasumi-1 (AML1-ETO)
[9] = system: MLL-translocated cell lines; assay: Proliferation of MLL-translocated cell lines; conditions: versus MLL-germline lines; FIG. 2
[10] = system: HL-60; assay: Cell proliferation, HL-60; format: cell-based; conditions: Homo sapiens; non-MLL-translocated line HL-60; FIG. 2
[11] = system: MLL germline leukemia cell lines; conditions: cited from earlier work
[12] = system: H3K79me2; assay: H3K79 methylation in NUP98-NSD1 transformed cells; format: cell-based, mouse; conditions: 10 μM
[13] = system: OCI-AML3; assay: Apoptosis and cell cycle in OCI-AML3 cells
[14] = system: HOXA9, HOXA10, MEIS1, HOXB3, HOXB4 and HOXB5 mRNA; assay: HOX gene qPCR in Npm1^cA/+Rosa^SB/+ AML cells; format: cell-based, mouse; conditions: 10 μM, FIG. 14A
Experimental: (§2) The effect of DOT1L inhibition on the levels of various HOX genes and HOX-associated genes was evaluated using qPCR.

[15] = system: Molm-13; conditions: Daigle, 2011; cited from earlier work
[16] = system: MLL-AF9 transformed cells; assay: Annexin V apoptosis in MLL-AF9 transformed cells; format: cell-based, mouse; conditions: 10 μM, 10 days; FIG. 8B
Experimental: The percentage of Annexin V positive cells is shown.
as §1

[17] = system: MV4-11; assay: Cell proliferation, MV4-11; format: cell-based; conditions: Homo sapiens; MLL-translocated line MV4-11; FIG. 2
[18] = system: Npm1^cA/−Flt3^ITD/+ AML cells; assay: Survival of C57/BL6 mice injected with pre-treated Npm1^cA/−Flt3^ITD/+ cells
[19] = system: MLL germline leukemia cell lines; assay: Proliferation of MLL germline leukemia cell lines; conditions: 10 μM; cell lines that do not show elevated HOXA gene expression; FIG. 2
[20] = system: MLL xenograft; conditions: in vivo administration; cited from earlier work
[21] = system: Jurkat; conditions: Daigle, 2011; cited from earlier work
[22] = system: HOXA7, HOXA9, HOXA10, and MEIS1; assay: HOX/MEIS1 mRNA expression in NUP98-NSD1 transformed cells; format: cell-based, mouse; conditions: 10 μM, 7 day treatment; FIG. 5B
Excerpt: FIG. 5B is a histogram showing mRNA expression of HOXA7, HOXA9, HOXA10, and MEIS1 relative to GAPDH (ddCT).

[23] = system: H3K79me2; conditions: 0.048, 0.195, 0.781, 3.12, and 12.5 μm; FIG. 1A; cited from earlier work
[24] = system: HOXA9, HOXA10, MEIS1, HOXB3, HOXB4 and HOXB5 mRNA; assay: HOX gene qPCR in Npm1^cA/+Flt3^ITD/+ AML cells; format: cell-based, mouse; conditions: 10 μM, FIG. 14B
Experimental: as §2

[25] = system: SEMK2; assay: Cell proliferation, SEMK2; format: cell-based; conditions: Homo sapiens; MLL-translocated line SEMK2; FIG. 2
[26] = system: Npm1^cA/+Rosa^SB/+ AML cells; assay: Colony formation of Npm1^cA/+Rosa^SB/+ AML cells; conditions: 10 μM; after primary and secondary transplantation; FIG. 12A, B
[27] = system: HOXA9 and MEIS1; conditions: cited from earlier work
[28] = day 19 complete blood counts, FIG. 13C

## CC(C)N(CCCNC(=O)Nc1ccc(C(C)(C)C)cc1)C[C@H]1O[C@@H](n2ccc3c(N)ncnc32)[C@H](O)[C@@H]1O [EPZ004777, 1-(3-((((2R,3S,4R,5R)-5-(4-Amino-7H-pyrrolo[2,3-d]pyrimidin-7-yl)-3,4-dihydroxytetrahydrofuran-2-yl)methyl)(isopropyl)amino)propyl)-3-(4-(tert-butyl)phenyl)urea]
[1]
  IC50: 720 nM
[2]
  proliferation: significantly inhibited
[3]; cells pre-treated 6 days with 10 μM, FIG. 13A
  survival (Kaplan-Meier): extended survival time; also recorded: prolonged survival
[3]; day 19, cells pre-treated 6 days with 10 μM, FIG. 13B
  peripheral blood smears, Wright-Giemsa stain: differentiation
[3]; [28]
  levels of hemoglobin: slight increase
  number of white blood cells: significant reduction
  platelet counts: slight increase
[4]
  IC50: > 50000 nM
[5]
  differentiation, cell surface marker CD11b expression: increased differentiation
[6]
  IC50: 3000 nM
[7]; 10 μM, compared with Molm-13, FIG. 10
  cell number versus DMSO: equally, if not more sensitive; also recorded: sensitive
[7]; Homo sapiens, OCI-AML2, 264 h, MTT assays on day 11, concentrations up to 10 μM
  IC50: 150 nM
[8]; 10 μM, AML1-ETO (Kasumi) cells, FIG. 3B, 7D
  proliferation (cell counts): not sensitive; also recorded: insensitive
[8]; Homo sapiens, Kasumi 1, read-out: IC50 for cell proliferation
  IC50: 33000 nM
[9]
  inhibition of proliferation of MLL-translocated cell lines: selectively inhibits
[10]
  IC50: > 50000 nM
[11]; MLL germline leukemia cell lines
  anti-proliferative effect: no anti-proliferative effect
[11]
  factor by which leukemic cells lacking MLL fusions are less sensitive: approximately 100
[12]; 7 day treatment
  HOX promoter associated H3K79 methylation: significantly reduced
[12]; 10 days, NUP98-NSD1 cells, FIG. 8A
  global H3K79me2 level (Western blotting): completely abrogated; also recorded: decrease
[13]
  cell cycle status by flow cytometry: Sub G1 accumulation
[13]; 10 μM, 4, 7, or 10 days, FIG. 11A
  apoptotic cells (Annexin V staining): tremendous increase in apoptotic cells; also recorded: apoptosis
[14]
  HOXA9, HOXA10, MEIS1, HOXB3, HOXB4 and HOXB5 mRNA levels: decreased
[14]; listed as EPZ00477
  HOXA9, HOXA10, MEIS1, HOXB3, HOXB4 and HOXB5 mRNA levels: significant decrease
[15]
  growth of the MLL-AF9 cell line Molm-13: exquisitely sensitive
[16]
  apoptosis (Annexin V staining): induces apoptosis
[17]
  IC50: 170 nM
[18]; cells treated with 10 μM, FIG. 13 A
  day on which animals start dying: 31 days
[18]; treatment of the AML cells with the DOT1L inhibitor
  survival time: prolonged survival time
[19]
  influence on proliferation: does not influence
[20]
  survival: prolonged survival; also recorded: extension of survival
[21]
  growth of MLL-germline Jurkat cells: unaffected
[22]
  mRNA expression of HOXA7, HOXA9, HOXA10, and MEIS1: substantial decrease; also recorded: strong inhibitory effect
[23]
  H3K79me2 histone methylation: inhibited
[24]
  HOXA9, HOXA10, MEIS1, HOXB3, HOXB4 and HOXB5 mRNA levels: decreased
[24]; listed as EPZ00477
  HOXA9, HOXA10, MEIS1, HOXB3, HOXB4 and HOXB5 mRNA levels: significant decrease
[25]
  IC50: 1700 nM
[26]
  colony formation potential: significant reduction
[27]
  MLL fusion driven gene expression, including HOXA9 and MEIS1: transcriptional repression; also recorded: dose-dependent inhibition
